Reference: patent publication US20100298141A1, “SUBSTITUTED PYRIDINE N-OXIDE HERBICIDES” (E. I. DU PONT DE NEMOURS AND COMPANY, priority 2007, published 2010)

Legend:
Assay in all cases: Test F preemergence test
Details in all cases: scale 0 to 100
[1] = test system: bermudagrass; assay type: in vivo, Cynodon dactylon
Outline: (§1)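 Test chemicals were formulated in a non-phytotoxic solvent mixture with surfactant and applied preemergence to planted seeds or postemergence to sugarcane plants. Plants were kept in a greenhouse for 14 to 21 days, then visually evaluated against controls.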

[2] = test system: Surinam grass; assay type: in vivo, Brachiaria decumbens
Outline: as §1

[3] = test system: large crabgrass; assay type: in vivo, Digitaria sanguinalis
Outline: as §1

[4] = test system: green foxtail; assay type: in vivo, Setaria viridis
Outline: as §1

[5] = test system: pitted morningglory; assay type: in vivo, Ipomoea lacunosa
Outline: as §1

[6] = test system: common ragweed; assay type: in vivo, Ambrosia elation
Outline: as §1

[7] = test system: mustard; assay type: in vivo, Brassica nigra
Outline: as §1

[8] = test system: guineagrass; assay type: in vivo, Panicum maximum
Outline: as §1

[9] = test system: barnyardgrass; assay type: in vivo, Echinochloa crus-galli
Outline: as §1

[10] = test system: southern sandbur; assay type: in vivo, Cenchrus echinatus
Outline: as §1

[11] = test system: prickly sida; assay type: in vivo, Sida spinosa
Outline: as §1

[12] = test system: Italian ryegrass; assay type: in vivo, Lolium multiflorum
Outline: as §1

[13] = test system: common purslane; assay type: in vivo, Portulaca oleracea
Outline: as §1

[14] = test system: common chickweed; assay type: in vivo, Stellaria media
Outline: as §1

[15] = test system: annual bluegrass; assay type: in vivo, Poa annua
Outline: as §1

[16] = test system: naked crabgrass; assay type: in vivo, Digitaria nuda
Outline: as §1

[17] = test system: quackgrass; assay type: in vivo, Elytrigia repens
Outline: as §1

[18] = test system: Canada horseweed; assay type: in vivo, Conyza canadensis
Outline: as §1

[19] = test system: field bindweed; assay type: in vivo, Convolvulus arvensis
Outline: as §1

[20] = test system: common mallow; assay type: in vivo, Malva sylvestris
Outline: as §1

Compound: Cc1cc[n+]([O-])c([S+]([O-])Cc2c(C(F)(F)F)nn(C)c2OCC(F)(F)F)c1 (racemic) [Compound 30]
- Bermudagrass plant response rating ([1]; 62 g ai/ha, Preemergence): 98
- Bermudagrass plant response rating ([1]; 125 g ai/ha, preemergence): 100
- Plant response rating, Bermudagrass ([1]; Preemergence, 16 g ai/ha): 40
- Plant response rating, Bermudagrass ([1]; Preemergence, 31 g ai/ha): 80
- Surinam Grass plant response rating ([2]; 62 g ai/ha, Preemergence): 80
- Surinam Grass plant response rating ([2]; 125 g ai/ha, preemergence): 100
- Plant response rating, Surinam Grass ([2]; Preemergence, 31 g ai/ha): 75
- Crabgrass, Large plant response rating ([3]; 62 g ai/ha, Preemergence): 100
- Crabgrass, Large plant response rating ([3]; 125 g ai/ha, preemergence): 100
- Plant response rating, Crabgrass, Large ([3]; Preemergence, 16 g ai/ha): 40
- Plant response rating, Crabgrass, Large ([3]; Preemergence, 31 g ai/ha): 50
- Foxtail, Green plant response rating ([4]; 62 g ai/ha, Preemergence): 75
- Foxtail, Green plant response rating ([4]; 125 g ai/ha, preemergence): 100
- Plant response rating, Foxtail, Green ([4]; Preemergence, 16 g ai/ha): 15
- Plant response rating, Foxtail, Green ([4]; Preemergence, 31 g ai/ha): 25
- Morningglory plant response rating ([5]; 62 g ai/ha, Preemergence): 90
- Morningglory plant response rating ([5]; 125 g ai/ha, preemergence): 100
- Plant response rating, Morningglory ([5]; Preemergence, 16 g ai/ha): 20
- Plant response rating, Morningglory ([5]; Preemergence, 31 g ai/ha): 60
- Ragweed plant response rating ([6]; 62 g ai/ha, Preemergence): 80
- Ragweed plant response rating ([6]; 125 g ai/ha, preemergence): 95
- Plant response rating, Ragweed ([6]; Preemergence, 16 g ai/ha): 50
- Plant response rating, Ragweed ([6]; Preemergence, 31 g ai/ha): 60
- Black Mustard plant response rating ([7]; 62 g ai/ha, Preemergence): 100
- Black Mustard plant response rating ([7]; 125 g ai/ha, preemergence): 100
- Plant response rating, Black Mustard ([7]; Preemergence, 16 g ai/ha): 70
- Plant response rating, Black Mustard ([7]; Preemergence, 31 g ai/ha): 90
- Guineagrass plant response rating ([8]; 62 g ai/ha, Preemergence): 100
- Guineagrass plant response rating ([8]; 125 g ai/ha, preemergence): 100
- Plant response rating, Guineagrass ([8]; Preemergence, 16 g ai/ha): 35
- Plant response rating, Guineagrass ([8]; Preemergence, 31 g ai/ha): 100
- Barnyardgrass plant response rating ([9]; 62 g ai/ha, Preemergence): 95
- Barnyardgrass plant response rating ([9]; 125 g ai/ha, preemergence): 100
- Plant response rating, Barnyardgrass ([9]; Preemergence, 16 g ai/ha): 20
- Plant response rating, Barnyardgrass ([9]; Preemergence, 31 g ai/ha): 75
- Sandbur plant response rating ([10]; 62 g ai/ha, Preemergence): 100
- Sandbur plant response rating ([10]; 125 g ai/ha, preemergence): 100
- Plant response rating, Sandbur ([10]; Preemergence, 31 g ai/ha): 50
- Prickly Sida plant response rating ([11]; 62 g ai/ha, Preemergence): 95
- Prickly Sida plant response rating ([11]; 125 g ai/ha, preemergence): 100
- Plant response rating, Prickly Sida ([11]; Preemergence, 16 g ai/ha): 60
- Plant response rating, Prickly Sida ([11]; Preemergence, 31 g ai/ha): 80
- Ryegrass, Italian plant response rating ([12]; 62 g ai/ha, Preemergence): 80
- Ryegrass, Italian plant response rating ([12]; 125 g ai/ha, preemergence): 95
- Plant response rating, Ryegrass, Italian ([12]; Preemergence, 16 g ai/ha): 60
- Plant response rating, Ryegrass, Italian ([12]; Preemergence, 31 g ai/ha): 70
- Purslane plant response rating ([13]; 62 g ai/ha, Preemergence): 75
- Purslane plant response rating ([13]; 125 g ai/ha, preemergence): 100
- Plant response rating, Purslane ([13]; Preemergence, 16 g ai/ha): 35
- Plant response rating, Purslane ([13]; Preemergence, 31 g ai/ha): 50
- Chickweed plant response rating ([14]; 62 g ai/ha, Preemergence): 100
- Chickweed plant response rating ([14]; 125 g ai/ha, preemergence): 100
- Plant response rating, Chickweed ([14]; Preemergence, 16 g ai/ha): 75
- Plant response rating, Chickweed ([14]; Preemergence, 31 g ai/ha): 100
- Bluegrass plant response rating ([15]; 62 g ai/ha, Preemergence): 65
- Bluegrass plant response rating ([15]; 125 g ai/ha, preemergence): 80
- Plant response rating, Bluegrass ([15]; Preemergence, 16 g ai/ha): 35
- Plant response rating, Bluegrass ([15]; Preemergence, 31 g ai/ha): 50
- Crabgrass, Naked plant response rating ([16]; 62 g ai/ha, Preemergence): 100
- Crabgrass, Naked plant response rating ([16]; 125 g ai/ha, preemergence): 100
- Plant response rating, Crabgrass, Naked ([16]; Preemergence, 16 g ai/ha): 80
- Plant response rating, Crabgrass, Naked ([16]; Preemergence, 31 g ai/ha): 98
- Quackgrass plant response rating ([17]; 62 g ai/ha, Preemergence): 70
- Quackgrass plant response rating ([17]; 125 g ai/ha, preemergence): 75
- Plant response rating, Quackgrass ([17]; Preemergence, 16 g ai/ha): 15
- Plant response rating, Quackgrass ([17]; Preemergence, 31 g ai/ha): 40
- Horseweed plant response rating ([18]; 62 g ai/ha, Preemergence): 100
- Horseweed plant response rating ([18]; 125 g ai/ha, preemergence): 100
- Plant response rating, Horseweed ([18]; Preemergence, 16 g ai/ha): 100
- Plant response rating, Horseweed ([18]; Preemergence, 31 g ai/ha): 100
- Field Bindweed plant response rating ([19]; 62 g ai/ha, Preemergence): 75
- Field Bindweed plant response rating ([19]; 125 g ai/ha, preemergence): 75
- Plant response rating, Field Bindweed ([19]; Preemergence, 16 g ai/ha): 50
- Plant response rating, Field Bindweed ([19]; Preemergence, 31 g ai/ha): 50
- Mallow plant response rating ([20]; 62 g ai/ha, Preemergence): 100
- Mallow plant response rating ([20]; 125 g ai/ha, preemergence): 100
- Plant response rating, Mallow ([20]; Preemergence, 16 g ai/ha): 90
- Plant response rating, Mallow ([20]; Preemergence, 31 g ai/ha): 95
